Data from paper PMC9977316, “The kidney drug transporter OAT1 regulates gut microbiome–dependent host metabolism” (JCI Insight, 2023).
Entries after “also recorded” stand apart in the source; their conditions may differ. Where a name gives a salt, the structure may show the parent alone.

What was measured:
OAT1 [1] = molecular target: T1, OAT1 (Homo sapiens, UniProt Q4U2R8); experiment: In vitro OAT1 transport assay (inhibition of 6-carboxyfluorescein uptake); type: cell-based; design: host or cells: HEK (HEK293) cells stably overexpressing human OAT1; conditions: for In vitro cell–based transport assay: this work
T1 sequence (Q4U2R8 1-563): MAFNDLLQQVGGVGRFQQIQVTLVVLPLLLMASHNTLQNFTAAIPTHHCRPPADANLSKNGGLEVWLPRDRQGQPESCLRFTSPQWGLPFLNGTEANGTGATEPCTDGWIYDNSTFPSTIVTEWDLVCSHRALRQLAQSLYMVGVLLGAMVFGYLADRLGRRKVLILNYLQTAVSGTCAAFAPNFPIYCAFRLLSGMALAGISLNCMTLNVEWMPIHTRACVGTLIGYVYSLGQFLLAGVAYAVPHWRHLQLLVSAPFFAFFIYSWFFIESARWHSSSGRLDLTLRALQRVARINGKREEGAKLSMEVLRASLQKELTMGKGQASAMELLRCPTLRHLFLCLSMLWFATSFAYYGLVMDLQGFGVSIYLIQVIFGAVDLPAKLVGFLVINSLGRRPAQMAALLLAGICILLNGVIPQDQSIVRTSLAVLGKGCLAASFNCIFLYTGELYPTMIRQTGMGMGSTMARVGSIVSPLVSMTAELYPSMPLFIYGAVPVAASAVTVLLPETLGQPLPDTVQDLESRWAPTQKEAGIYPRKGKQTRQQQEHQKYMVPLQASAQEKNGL
Method: Human embryonic kidney (HEK) cells stably overexpressing human OAT1 (SOLVO Biotechnology) were used for in vitro inhibition assays. […] Prior to functional assays, cells were plated in 96-well plates and grown for 24 hours or until confluent in media without blasticidin. Metabolites were added at either 1 mM or 2 mM, and serial dilution was performed down all columns. A fixed concentration of 10 μM 6-carboxyfluorescein (6-CF) was introduced to each well for 10 minutes. Cells were rinsed 3 times in ice-cold PBS, and the fluorescence was measured using a fluorescence plate reader. IC50 values were calculated using GraphPad Prism 9. Controls were carried out using probenecid, an established inhibitor of OAT1 function.

OAT1 [2] = molecular target: T2, OAT1 (Mus musculus, UniProt Q8VC69); experiment: Serum metabolomics, effect of genotype (Oat1-KO versus WT), 2-way ANOVA; type: in vivo; conditions: for interaction between genotype and treatment on serum level: 2-way ANOVA, loss of Oat1 x microbiome depletion; for effect of genotype on serum level: statistical analysis of the serum metabolome
T2 construct: from tissue; host or cells: living mice (kidney proximal tubule); Oat1-KO versus WT
T2 sequence (Q8VC69 1-545): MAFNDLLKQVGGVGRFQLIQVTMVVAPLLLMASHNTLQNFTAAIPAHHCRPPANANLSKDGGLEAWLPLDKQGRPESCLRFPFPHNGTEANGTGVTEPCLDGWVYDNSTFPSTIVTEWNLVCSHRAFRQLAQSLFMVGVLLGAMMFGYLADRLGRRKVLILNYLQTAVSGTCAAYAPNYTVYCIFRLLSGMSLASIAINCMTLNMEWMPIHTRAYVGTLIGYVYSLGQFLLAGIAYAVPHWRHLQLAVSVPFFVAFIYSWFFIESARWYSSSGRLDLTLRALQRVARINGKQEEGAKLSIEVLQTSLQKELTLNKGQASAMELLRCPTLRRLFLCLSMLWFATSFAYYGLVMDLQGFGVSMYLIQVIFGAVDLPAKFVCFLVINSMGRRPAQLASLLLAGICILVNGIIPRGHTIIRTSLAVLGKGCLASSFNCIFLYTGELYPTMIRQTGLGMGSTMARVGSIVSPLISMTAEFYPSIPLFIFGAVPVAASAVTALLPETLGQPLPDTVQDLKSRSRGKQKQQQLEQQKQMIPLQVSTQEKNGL
Method: Adult male KO and WT mice were housed in a 12-hour light-dark cycle and allowed ad libitum access to food and water. Oat1-KO mice were generated and maintained as previously described ([49]). Feces were collected from mice weekly in sterile 2 mL centrifuge tubes, flash frozen, and stored at –80°C. Animals were sacrificed by CO2 inhalation, and blood samples were extracted from mice by cardiac puncture. Serum was extracted, and samples were flash frozen and stored at –80°C until further analysis.
Serum samples were shipped on dry ice to Metabolon Inc. for preparation and metabolomics. Per Metabolon Inc., proteins were removed from the serum and 5 fractions were generated for different mass spectrometry methods. […] Peaks were identified and associated with defined compounds based on retention time, mass/charge ratio, and MS/MS spectral data. Quantification of peaks was performed using AUC.
Scaled intensity for each metabolite was normalized to volume, and missing values were imputed with the lowest value for the compound. For all fold-change calculations, scaled intensities were averaged and compared with each other. Statistical comparisons were performed using the Python module, statsmodels (https://www.statsmodels.org/stable/index.html) and were made between groups by 2-way ANOVA following log transformation and FDR correction, with P < 0.05 being considered significant. Enrichment for each superpathway and subpathway was calculated using the number of total metabolites measured and the number of metabolites in each respective superpathway and subpathway, as previously described ([16]).

OAT1 [3] = conditions: cited from earlier work; for Decreased in urine of probenecid-treated humans / Elevated in plasma of probenecid-treated humans: before vs 5 hours after oral probenecid
[4] = direction of serum change by loss of Oat1 and by microbiome depletion

Status (OAT1 [2]; [4])	Compound	Decreased in urine of probenecid-treated humans (OAT1 [3])	also measured
Group 2	C[C@H](CCC(=O)O)[C@H]1CC[C@H]2[C@@H]3CC[C@@H]4C[C@H](O)CC[C@]4(C)[C@H]3C[C@H](O)[C@]12C [deoxycholate]	–	IC50 (OAT1 [1]): 19.2 µM; In vitro cell–based transport assay (OAT1 [1]): × (this work); interaction between genotype and treatment on serum level (OAT1 [2]): impacted by the interaction between the variables; also recorded: affected by genotype-treatment interaction
Group 4	CN1CCC[C@H]1C(=O)O [N-methylproline]	–	–
–	O=C(O)Cc1c[nH]c2ccc(O)cc12 [5-Hydroxyindoleacetate]	–	effect of genotype on serum level (OAT1 [2]): not impacted by either variable
–	O=C(O)/C=C/c1ccccc1 [cinnamate]	–	Status (OAT1 [2]; mouse, in vivo): Group 4
Group 4	O=C(O)CCCC(=O)C(=O)O [2-oxoadipate]	✓	–
Group 2	O=C(O)Cc1cccc2cc[nH]c12 [1H-indole-7-acetic acid]	–	–
–	O=C(O)Cc1ccccc1O [2-hydroxyphenylacetate]	–	IC50 (OAT1 [1]): 39.2 µM; In vitro cell–based transport assay (OAT1 [1]): × (this work); effect of genotype on serum level (OAT1 [2]): affected by genotype
Group 2	Cc1ccc(OS(=O)(=O)O)c(N)c1 [2-amino-p-cresol sulfate]	–	interaction between genotype and treatment on serum level (OAT1 [2]): impacted by the interaction between the variables
Group 2	Cn1cncc1C[C@H](N)C(=O)O [3-methylhistidine]	–	–
Group 2	C=CCc1ccc(OS(=O)(=O)O)cc1 [4-allylphenol sulfate]	✓	–
Group 1	O=C(O)CCC(=O)NCCS(=O)(=O)O [succinoyltaurine]	✓	–
Group 2	Cc1ccc(OS(=O)(=O)O)cc1 [p-cresol sulfate]	✓	Elevated in plasma of probenecid-treated humans (OAT1 [3]): ✓; plasma level in probenecid treated humans (OAT1 [3]): significantly elevated in the plasma
Group 3	CC(=O)N[C@@H](CCCCNC(N)=O)C(=O)O [N-acetylhomocitrulline]	✓	–
Group 2	O=C(O)CNC(=O)Cc1ccccc1 [phenylacetylglycine]	–	Elevated in plasma of probenecid-treated humans (OAT1 [3]): ✓
Group 2	C[N+](C)(C)CCCCC(=O)[O-] [N,N,N-trimethyl-5-aminovalerate]	–	–
Group 1	O=C1O[C@H]([C@@H](O)CO)C(OS(=O)(=O)O)=C1O [ascorbic acid 3-sulfate*]	–	–
Group 2	O=C(O)CCc1ccc(O)cc1 [3-(4-hydroxyphenyl)propionate]	–	–
Group 2	O=C(O)c1c(O)cccc1O [2,6-dihydroxybenzoic acid]	✓	Elevated in plasma of probenecid-treated humans (OAT1 [3]): ✓

Status (OAT1 [2]; [4])	Compound	Decreased in urine of probenecid-treated humans (OAT1 [3])	also measured
Group 2	CCc1ccc(OS(=O)(=O)O)cc1 [4-ethylphenyl sulfate]	✓	urine level in probenecid treated humans (OAT1 [3]): significantly decreased in the urine
Group 2	O=C1Cc2ccccc2N1 [indolin-2-one]	✓	Elevated in plasma of probenecid-treated humans (OAT1 [3]): ✓
Group 2	3-methoxycatechol sulfate (2)	✓	–
Group 1	C[C@@H](C(=O)O)N(C)C [N,N-dimethylalanine]	–	–
Group 3	CC(=O)NCCCC[C@H](NC(C)=O)C(=O)O [N2,N6-diacetyllysine]	✓	–
Group 1	Cn1cncc1CC(O)C(=O)O (centres unmarked) [1-methyl-5-imidazolelactate]	–	–
–	O=C(O)/C=C/c1ccc(O)cc1 [4-hydroxycinnamate]	–	IC50 (OAT1 [1]): 13.3 µM; In vitro cell–based transport assay (OAT1 [1]): × (this work); effect of genotype on serum level (OAT1 [2]): not impacted by either variable
–	O=C(O)CCc1c[nH]c2ccccc12 [indolepropionate]	–	IC50 (OAT1 [1]): 39.2 µM; In vitro cell–based transport assay (OAT1 [1]): × (this work)
–	O=S(=O)(O)Oc1c[nH]c2ccccc12 [3-indoxyl sulfate]	✓	Elevated in plasma of probenecid-treated humans (OAT1 [3]): ✓; plasma level in probenecid treated humans (OAT1 [3]): significantly elevated in the plasma
Group 3	[H]/N=C(/N)NCC(=O)O [guanidinoacetate]	–	–
Group 3	CC(=O)N[C@@H](CCCCN(C)C)C(=O)O [N2-acetyl,N6,N6-dimethyllysine]	✓	–
Group 4	CC(C)C(O)(CC(=O)O)C(=O)O (centres unmarked) [2-isopropylmalate]	–	Elevated in plasma of probenecid-treated humans (OAT1 [3]): ✓
Group 1	CS(=O)(=O)CC[C@H](N)C(=O)O [methionine sulfone]	✓	–
Group 2	COc1ccc(OS(=O)(=O)O)cc1 [4-methoxyphenol sulfate]	✓	Elevated in plasma of probenecid-treated humans (OAT1 [3]): ✓; plasma level in probenecid treated humans (OAT1 [3]): elevated in the plasma; urine level in probenecid treated humans (OAT1 [3]): decreased in the urine
Group 4	O=C(O)CCc1ccccc1.O=C(O)CCc1ccccc1 [3-phenylpropionate (hydrocinnamate)]	–	–
Group 4	CC(=O)N[C@@H](CO)C(=O)O [N-acetylserine]	–	–
Group 1	OC[C@H]1OC[C@H](O)[C@@H](O)[C@@H]1O [1,5-anhydroglucitol (1,5-AG)]	–	–
–	docosahexaenoylcarnitine (C22:6)*	–	interaction between genotype and treatment on serum level (OAT1 [2]): impacted by the interaction between the variables

Compound	Status (OAT1 [2]; [4])	Decreased in urine of probenecid-treated humans (OAT1 [3])	also measured
COc1cc(CC(=O)O)ccc1OS(=O)(=O)O [homovanillate sulfate]	Group 2	✓	–
O=S(=O)(O)Oc1ccccc1O [catechol sulfate]	Group 2	✓	–
CC(CCC[C@@H](C)[C@H]1CC[C@H]2[C@@H]3[C@H](O)CC4=CC(=O)CC[C@]4(C)[C@H]3CC[C@]12C)C(=O)O (some centres unmarked) [7-HOCA]	Group 3	–	–
O=S(=O)(O)Oc1ccc(O)cc1 [hydroquinone sulfate]	Group 2	–	Elevated in plasma of probenecid-treated humans (OAT1 [3]): ✓
